Reference: patent publication US10131652B2, “Pyrimidinyloxy benzene derivatives as herbicides” (E. I. DU PONT DE NEMOURS AND COMPANY, priority 2014, dated 2018)

Columns and labels:
Type in all cases: in vivo
[1] = system: ducksalad (Heteranthera limosa); assay: Test C flooded paddy test plant response; settings: Flood, 250 g ai/ha; scale of 0 to 100 where 0 is no effect and 100 is complete control; 13 to 15 days
Method in brief: (§1)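 Readout is a visual 0–100 score (100 = complete control) versus controls at 13–15 days. Plants at 2-leaf stage, flooded to 3 cm, treated through paddy water.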

[2] = system: barnyardgrass (Echinochloa crus-galli); assay: Test C flooded paddy test plant response; settings: Flood, 250 g ai/ha; scale of 0 to 100 where 0 is no effect and 100 is complete control; 13 to 15 days
Method in brief: as §1

rice (Oryza sativa) = assay: Test C flooded paddy test plant response; settings: Flood, 250 g ai/ha; scale of 0 to 100 where 0 is no effect and 100 is complete control; 13 to 15 days
Method in brief: as §1

[3] = system: small-flower umbrella sedge (Cyperus difformis); assay: Test C flooded paddy test plant response; settings: Flood, 250 g ai/ha; scale of 0 to 100 where 0 is no effect and 100 is complete control; 13 to 15 days
Method in brief: as §1

kochia (Kochia scoparia) = assay: Test B pre-/postemergence plant response
Method in brief: (§2)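 Seeds in loam–sand blend given preemergence soil spray; separately, plants at one- to two-leaf stage (2–10 cm) sprayed postemergence, compounds in non-phytotoxic solvent with surfactant. Injury rated visually versus untreated controls after ~10 days in greenhouse, 0 (no effect) to 100 (complete control).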

corn (Zea mays) = assay: Test B pre-/postemergence plant response
Method in brief: as §2

[4] = system: barnyardgrass (Echinochloa crus-galli); assay: Test B pre-/postemergence plant response
Method in brief: as §2

[5] = system: ragweed (common ragweed, Ambrosia elatior); assay: Test B pre-/postemergence plant response
Method in brief: as §2

[6] = system: giant foxtail (Setaria faberii); assay: Test B pre-/postemergence plant response
Method in brief: as §2

[7] = system: Italian ryegrass (Lolium multiflorum); assay: Test B pre-/postemergence plant response
Method in brief: as §2

[8] = system: wheat (Triticum aestivum); assay: Test B pre-/postemergence plant response
Method in brief: as §2

[9] = system: pigweed (Amaranthus retroflexus); assay: Test B pre-/postemergence plant response
Method in brief: as §2

[10] = system: blackgrass (Alopecurus myosuroides); assay: Test B postemergence plant response
Method in brief: (§3)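 Weeds grown in loam soil/sand pots were sprayed postemergence at 2 to 10 cm height, one- to two-leaf stage. After approximately 10 days in greenhouse, injury was rated visually against untreated controls on a 0 (no effect) to 100 (complete control) scale; dash means no test result.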

[11] = system: galium (catchweed bedstraw, Galium aparine); assay: Test B postemergence plant response
Method in brief: as §3

[12] = 31 g ai/ha, Preemergence, 0 to 100 scale where 0 is no effect and 100 is complete control
[13] = 125 g ai/ha, postemergence, 0 to 100 scale, 0 no effect, 100 complete control
[14] = Postemergence, 31 g ai/ha, 0 to 100 scale (0 no effect, 100 complete control)
[15] = Preemergence, 125 g ai/ha, 0 to 100 scale (0 no effect, 100 complete control)
[16] = Postemergence, 500 g ai/ha, 0 to 100 scale (0 no effect, 100 complete control)
[17] = Preemergence, 500 g ai/ha, 0 to 100 scale where 0 is no effect and 100 is complete control

Structure (SMILES)	Ducksalad plant response rating [1]	Barnyardgrass plant response rating [2]	Rice plant response rating (rice (Oryza sativa))	Sedge, Umbrella plant response rating [3]	Plant response rating, Kochia (kochia (Kochia scoparia); [13])	Kochia plant response rating (kochia (Kochia scoparia); [15])	Plant response rating, Corn (corn (Zea mays); [13])	Plant response rating, Barnyardgrass [4, 13]	Barnyardgrass plant response rating [4, 15]	Plant response rating, Ragweed [5, 13]	Ragweed plant response rating [5, 15]	Plant response rating, Foxtail, Giant [6, 13]	Foxtail, Giant plant response rating [6, 15]	Plant response rating, Ryegrass, Italian [7, 13]	Ryegrass, Italian plant response rating [7, 15]	Plant response rating, Wheat [8, 13]	Plant response rating, Pigweed [9, 13]	Pigweed plant response rating [9, 15]	Plant response rating, Blackgrass [10, 13]	Plant response rating, Galium [11, 13]	further results
Cn1nc(-c2c(C#N)cccc2Oc2ncc(Cl)cn2)cc1C(F)(F)F [Compound 146]	0	0	0	0	60	0	0	20	30	0	0	20	20	0	0	0	60	70	30	50	Plant response rating, Kochia (kochia (Kochia scoparia); [12]): 0; Plant response rating, Kochia (kochia (Kochia scoparia); [14]): 50; Plant response rating, Corn (corn (Zea mays); [14]): 0; Plant response rating, Barnyardgrass [4, 12]: 0; Plant response rating, Barnyardgrass [4, 14]: 0; Plant response rating, Ragweed [5, 12]: 0; Plant response rating, Ragweed [5, 14]: 0; Plant response rating, Foxtail, Giant [6, 12]: 0; Plant response rating, Foxtail, Giant [6, 14]: 0; Plant response rating, Ryegrass, Italian [7, 12]: 0; Plant response rating, Ryegrass, Italian [7, 14]: 0; Plant response rating, Wheat [8, 14]: 0; Plant response rating, Pigweed [9, 12]: 0; Plant response rating, Pigweed [9, 14]: 30; Plant response rating, Blackgrass [10, 14]: 0; Plant response rating, Galium [11, 14]: 30
Cn1nc(-c2c(Br)cccc2Oc2ncc(Cl)cn2)cc1C(F)(F)F [Compound 147]	0	0	0	0	0	0	0	0	0	0	0	0	0	0	0	0	0	0	0	0	Plant response rating, Kochia (kochia (Kochia scoparia); [12]): 0; Plant response rating, Kochia (kochia (Kochia scoparia); [14]): 0; Plant response rating, Corn (corn (Zea mays); [14]): 0; Plant response rating, Barnyardgrass [4, 12]: 0; Plant response rating, Barnyardgrass [4, 14]: 0; Plant response rating, Ragweed [5, 12]: 0; Plant response rating, Ragweed [5, 14]: 0; Plant response rating, Foxtail, Giant [6, 12]: 0; Plant response rating, Foxtail, Giant [6, 14]: 0; Plant response rating, Ryegrass, Italian [7, 12]: 0; Plant response rating, Ryegrass, Italian [7, 14]: 0; Plant response rating, Wheat [8, 14]: 0; Plant response rating, Pigweed [9, 12]: 0; Plant response rating, Pigweed [9, 14]: 0; Plant response rating, Blackgrass [10, 14]: 0; Plant response rating, Galium [11, 14]: 0
CC(=O)c1cc(-c2ccccc2Oc2ncc(Br)cn2)no1 [Compound 150]	0	0	0	0	0	0	10	20	20	0	0	10	20	0	0	0	20	20	10	10	Plant response rating, Kochia (kochia (Kochia scoparia); [12]): 0; Plant response rating, Kochia (kochia (Kochia scoparia); [14]): 0; Plant response rating, Corn (corn (Zea mays); [14]): 0; Plant response rating, Barnyardgrass [4, 12]: 0; Plant response rating, Barnyardgrass [4, 14]: 0; Plant response rating, Ragweed [5, 12]: 0; Plant response rating, Ragweed [5, 14]: 0; Plant response rating, Foxtail, Giant [6, 12]: 0; Plant response rating, Foxtail, Giant [6, 14]: 0; Plant response rating, Ryegrass, Italian [7, 12]: 0; Plant response rating, Ryegrass, Italian [7, 14]: 0; Plant response rating, Wheat [8, 14]: 0; Plant response rating, Pigweed [9, 12]: 0; Plant response rating, Pigweed [9, 14]: 10; Plant response rating, Blackgrass [10, 14]: 0; Plant response rating, Galium [11, 14]: 0
Cn1ccnc1-c1ccccc1Oc1ncc(Cl)cn1 [Compound 151]	0	0	0	0	0	0	0	0	0	0	0	0	0	0	0	0	0	0	0	0	Plant response rating, Kochia (kochia (Kochia scoparia); [16]): 0; Plant response rating, Kochia (kochia (Kochia scoparia); [17]): 0; Plant response rating, Corn (corn (Zea mays); [16]): 0; Plant response rating, Barnyardgrass [4, 16]: 0; Plant response rating, Barnyardgrass [4, 17]: 0; Plant response rating, Ragweed [5, 16]: 0; Plant response rating, Ragweed [5, 17]: 0; Plant response rating, Foxtail, Giant [6, 16]: 0; Plant response rating, Foxtail, Giant [6, 17]: 0; Plant response rating, Ryegrass, Italian [7, 16]: 0; Plant response rating, Ryegrass, Italian [7, 17]: 0; Plant response rating, Wheat [8, 16]: 0; Plant response rating, Pigweed [9, 16]: 0; Plant response rating, Pigweed [9, 17]: 0; Plant response rating, Blackgrass [10, 16]: 0; Plant response rating, Galium [11, 16]: 0
Cn1ccnc1-c1ccccc1Oc1ncc(Br)cn1 [Compound 152]	0	0	0	0	0	0	0	0	0	0	0	0	0	0	0	0	0	0	0	0	Plant response rating, Kochia (kochia (Kochia scoparia); [16]): 0; Plant response rating, Kochia (kochia (Kochia scoparia); [17]): 0; Plant response rating, Corn (corn (Zea mays); [16]): 0; Plant response rating, Barnyardgrass [4, 16]: 0; Plant response rating, Barnyardgrass [4, 17]: 0; Plant response rating, Ragweed [5, 16]: 0; Plant response rating, Ragweed [5, 17]: 0; Plant response rating, Foxtail, Giant [6, 16]: 0; Plant response rating, Foxtail, Giant [6, 17]: 0; Plant response rating, Ryegrass, Italian [7, 16]: 0; Plant response rating, Ryegrass, Italian [7, 17]: 0; Plant response rating, Wheat [8, 16]: 0; Plant response rating, Pigweed [9, 16]: 0; Plant response rating, Pigweed [9, 17]: 0; Plant response rating, Blackgrass [10, 16]: 0; Plant response rating, Galium [11, 16]: 0
